One series in a line: physchem. The conditions noted are these: water, thermodynamic from solid. As to the method: This was subjected to ultrasonication on a water bath for 10 min, and gently shaken in a twin mixer (TM-282, AS ONE Corporation) at room temperature for 1 hr. After shaking, the mixture was centrifuged by a portable ultracentrifuge (10000 rpm×10 min., MC-150, TOMY SEIKO CO., LTD.) and the supernatant was filtered (Millex-LH, Millipore Corporation).

Series [1] in a line: Hygroscopicity comparison test (adsorption isotherm curve measurement). The class given is physicochemical. The settings on record: 0-95% RH, 25° C. As for the experimental part:
An adsorption isotherm curve measurement was performed under the following conditions.
apparatus: DVS-1 (sms Ltd., UK)
measurement temperature: 25° C.
measurement operation: a sample was measured in a sample cup, sample weight was measured by successively changing the relative humidity at 50→0→95→0→50% RH.
The smaller weight change due to humidity is an important factor for the management of charge amount of the bulk drug for pharmaceutical products.

Series [2] can be described thus: Chemical stability comparison test (one month preservation, purity by HPLC). The series is classed as physicochemical. As to the method: The sample after preservation was measured for chemical purity by HPLC. The HPLC conditions are shown below. • apparatus: SHIMADZU Corporation • column: Inertsil ODS-3V (GL Sciences Inc.) inner diameter 4.6 mm and length 150 mm • column oven: 40° C. • detection wavelength: 234 nm • measurement operation: a sample (about 1 mg) was measured in a vial container for HPLC, dissolved in a mixture (1 mL) of water/acetonitrile=1:1, and analyzed under the following conditions. • eluent composition: SOLUTION A 0.1% trifluoroacetic acid/water • SOLUTION B 0.1% trifluoroacetic acid/acetonitrile • gradient: SOLUTION B concentration: 5→100% (60 min) • mobile phase flow rate: 1.0 mL/min • injection volume: 5 μL
An increase rate of related substances after one month preservation was determined from the peak area in the HPLC chromatogram.

The mark [3] stands for this setting: preserved one month at 40° C. 75% RH.

With `Cc1cccc2c(=O)[nH]c(CCN3CCC[C@@H]3CO)cc12.Cl.O.O` [monohydrochloride dihydrate, (R)-3-[2-(2-hydroxymethylpyrrolidin-1-yl)ethyl]-5-methyl-2H-isoquinolin-1-one monohydrochloride dihydrate], in the series “physchem”, the solubility (commonly the dissolved amount per volume that the medium holds) was 45 mg/mL. In series [1], the moisture absorption is 11 % (w/w) and the “moisture absorption, corresponding hydrated water” value amounted to 2 hydrated water.
For the molecule `Cc1cccc2c(=O)[nH]c(CCN3CCC[C@@H]3CO)cc12` [free form, (R)-3-[2-(2-hydroxymethylpyrrolidin-1-yl)ethyl]-5-methyl-2H-isoquinolin-1-one], the “Increase rate of related substances (%)” value is recorded as “+0.16%” in series [2] (preserved one month at 30° C.), “+0.18%” in series [2] (preserved one month at 40° C.), “+0.28%” in series [2] (setting [3]) and “+1.30%” in series [2] (preserved one month at 50° C.). This molecule also returned a solubility in “physchem” of at most 1 mg/mL.
Turning to “anhydrous (R)-3-[2-(2-hydroxymethylpyrrolidin-1-yl)ethyl]-5-methyl-2H-isoquinolin-1-one monophosphate”, the “Increase rate of related substances (%)” value in series [2] (preserved one month at 30° C.) was −0.01%; in series [2] (preserved one month at 40° C.), −0.01%; in series [2] (setting [3]), −0.02%; in series [2] (preserved one month at 50° C.), −0.01%. The moisture absorption in series [1] is on record as 0.5 % (w/w). For the same molecule, in series [1], the “moisture absorption, corresponding hydrated water” value is listed as 0.1 hydrated water.
